# Assay results from ChEMBL document CHEMBL2062520, “Synthesis and in vitro antimalarial activity of a series of bisquinoline and bispyrrolo[1,2a]quinoxaline compounds” (Eur J Med Chem, 2012).
# pIC50: −log10 of the molar value.
# Key:
# CHO = test: Cytotoxicity against CHO cells by MTT assay; format: cell-based; details: Cricetulus griseus
# UACC-62 = test: Cytotoxicity against human UACC62 cells after 48 hrs by sulforhodamine B assay; format: functional; details: for GI50 / TGI / CC50: Homo sapiens, UACC-62, 48 h; for CC50: read-out: LC50 (the source's name)
# TK-10 = test: Cytotoxicity against human TK10 cells after 48 hrs by sulforhodamine B assay; format: functional; details: for GI50 / TGI / CC50: Homo sapiens, TK-10, 48 h; for CC50: read-out: LC50 (the source's name)
# Plasmodium falciparum [1] = test: Antimalarial activity against asexual erythrocyte stages of chloroquine-resistant Plasmodium falciparum Dd2; format: functional, organism-based
# Plasmodium falciparum [2] = test: Resistant index, ratio of IC50 for chloroquine-resistant Plasmodium falciparum Dd2 to IC50 for chloroquine-sensitive Plasmodium falciparum D10; format: functional
# physchem = details: octanol/phosphate buffered saline
# Description: Octanol-phosphate buffered saline distribution coefficient, log D of the compound at 2 mg after 48 hrs by HPLC analysis
# MCF7 = test: Cytotoxicity against human MCF7 cells after 48 hrs by sulforhodamine B assay; format: functional; details: for GI50 / TGI / CC50: Homo sapiens, MCF7, 48 h; for CC50: read-out: LC50 (the source's name)
# [3] = Aqueous solubility of the compound in phosphate buffer at pH 5.5 after 24 hrs by HPLC analysis; format: physicochemical
# Plasmodium falciparum [4] = test: Antimalarial activity against asexual erythrocyte stages of chloroquine-sensitive Plasmodium falciparum D10; format: functional, organism-based
# [5] = Selectivity index, ratio of IC50 for CHO cells to IC50 for chloroquine-sensitive Plasmodium falciparum D10; format: toxicity, cell-based; details: hamster, read-out: Ratio IC50
SMILES,pIC50 (CHO),LC100 (UACC-62),GI50 (UACC-62),TGI (UACC-62),CC50 (UACC-62),LC100 (TK-10),GI50 (TK-10),TGI (TK-10),CC50 (TK-10),pIC50 (Plasmodium falciparum [1]),Ratio IC50 (Plasmodium falciparum [2]),logD at 48 h (physchem),LC100 (MCF7),GI50 (MCF7),TGI (MCF7),CC50 (MCF7),solubility at 24 h [3],pIC50 (Plasmodium falciparum [4]),selectivity ratio [5]
CN(CCCNc1ccnc2cc(Cl)ccc12)CCCNc1ccnc2cc(Cl)ccc12,5.11,>100 µM,360 nM,640 nM,920 nM,45.12 µM,540 nM,1000 nM,5610 nM,7.15,1.9,0.29,>100 µM,390 nM,690 nM,1200 nM,32.9 mM,7.43,211
c1ccc2c(c1)nc(NCCNCCNc1nc3ccccc3n3cccc13)c1cccn12,,,,,,,,,,5.72,3.4,0.39,,,,,27.5 mM,6.26,
Clc1ccc2c(NCCNCCNCCNc3ccnc4cc(Cl)ccc34)ccnc2c1,5.10,>100 µM,2870 nM,5300 nM,7740 nM,>100 µM,5890 nM,5360 nM,7710 nM,7.45,0.4,0.28,>100 µM,760 nM,3530 nM,7370 nM,38.7 mM,7.06,93
Clc1ccc2c(NCCCNCCNCCCNc3ccnc4cc(Cl)ccc34)ccnc2c1,4.89,>100 µM,1060 nM,4090 nM,7110 nM,>100 µM,2100 nM,4740 nM,7380 nM,7.31,0.4,0.3,>100 µM,380 nM,1650 nM,6430 nM,18.9 mM,6.89,102
Cc1cccc2nccc(NCCNCCNc3ccnc4cccc(C)c34)c12,,,,,,,,,,6.29,0.7,0.05,,,,,29.5 mM,6.13,
Cc1cccc2nccc(NCCCNCCNc3ccnc4cccc(C)c34)c12,,,,,,,,,,6.98,0.5,0.32,,,,,28.2 mM,6.67,
Cc1cccc2nccc(NCCCNCCCNc3ccnc4cccc(C)c34)c12,3.88,,,,,,,,,7.10,0.6,0.14,,,,,27.9 mM,6.89,1024
Cc1cccc2nccc(NCCCN(C)CCCNc3ccnc4cccc(C)c34)c12,,,,,,,,,,5.72,10.4,0.16,,,,,31.2 mM,6.73,
Cc1cccc2nccc(NCCNCCNCCNc3ccnc4cccc(C)c34)c12,,,,,,,,,,5.96,0.8,0.4,,,,,38.9 mM,5.85,
Cc1cccc2nccc(NCCCNCCNCCCNc3ccnc4cccc(C)c34)c12,3.76,,,,,,,,,6.22,0.7,0.34,,,,,36.5 mM,6.04,187
c1ccc2c(c1)nc(NCCCNCCNc1nc3ccccc3n3cccc13)c1cccn12,5.55,,,,,,,,,5.86,6.9,0.34,,,,,28.6 mM,6.70,14
c1ccc2c(c1)nc(NCCCNCCCNc1nc3ccccc3n3cccc13)c1cccn12,5.42,,,,,,,,,6.45,4.7,0.32,,,,,24.1 mM,7.12,51
c1ccc2c(c1)nc(NCCNCCNCCNc1nc3ccccc3n3cccc13)c1cccn12,5.09,,,,,,,,,5.38,2.3,-0.02,,,,,34 mM,5.74,4.5
Clc1ccc2c(NCCCNCCNc3ccnc4cc(Cl)ccc34)ccnc2c1,5.51,>100 µM,2070 nM,4890 nM,7720 nM,>100 µM,1230 nM,4250 nM,7270 nM,7.25,0.9,0.3,>100 µM,600 nM,2790 nM,7210 nM,23.5 mM,7.18,47
Clc1ccc2c(NCCCNCCCNc3ccnc4cc(Cl)ccc34)ccnc2c1,,,,,,,,,,,,0.28,,,,,28.9 mM,,
Clc1ccc2c(NCCNCCNc3ccnc4cc(Cl)ccc34)ccnc2c1,,,,,,,,,,,,0.3,,,,,32 mM,,
CN(CCCNc1nc2ccccc2n2cccc12)CCCNc1nc2ccccc2n2cccc12,5.37,,,,,,,,,6.14,6.5,0.36,,,,,30.2 mM,6.95,39
CC[C@H]1CN2CCc3cc(OC)c(OC)cc3[C@@H]2C[C@@H]1C[C@H]1NCCc2cc(OC)c(OC)cc21 [EMETINE],6.52,,,,,,,,,,,,,,,,,,
